Data from patent publication US20230053688A1, “METHODS TO ALTER LATENCY IN EBV+ MALIGNANCIES” (Cornell University, priority 2020, published 2023).
Counter-ions that a name gives are not always drawn. Like-named read-outs stand apart in the source and are kept apart here.

Test system: LMP1 expression in Kem I cells
Experiment: microbe, parasite or virus in culture
Format: cell-based, EBV
Settings: for fold induction at 2.5 µM: human gammaherpesvirus 4, 48 h; for Average LMP1 Fold Increase / Replicate 1-LMP1 Fold Increase / Replicate 2-LMP1 Fold Increase: Kem I cells, 48 hours
[1] = read-out: Average LMP1 Fold Increase, Kem I cells, dose 2.5 uM, 48 hours, LMP1 transcript by in-well qRT-PCR, average of the two replicates
[2] = read-out: Replicate 1-LMP1 Fold Increase, Kem I cells, dose 2.5 uM, 48 hours, LMP1 transcript by in-well qRT-PCR, screen replicate 1
[3] = read-out: Replicate 2-LMP1 Fold Increase, Kem I cells, dose 2.5 uM, 48 hours, LMP1 transcript by in-well qRT-PCR, screen replicate 2
[4] = read-out: Average LMP1 Fold Increase, Kem I cells, 2.5 uM, 48 hours, average of replicates 1 and 2
[5] = read-out: Replicate 1-LMP1 Fold Increase, Kem I cells, 2.5 uM, 48 hours, fold change in LMP1 transcript vs vehicle
[6] = read-out: Replicate 2-LMP1 Fold Increase, Kem I cells, 2.5 uM, 48 hours, fold change in LMP1 transcript vs vehicle
[7] = 2.5 uM, average of replicates 1 and 2
[8] = 2.5 uM, fold change in LMP1 transcript vs vehicle
[9] = dose 2.5 uM, LMP1 transcript by in-well qRT-PCR, average of the two replicates
[10] = dose 2.5 uM, LMP1 transcript by in-well qRT-PCR, screen replicate 1
[11] = dose 2.5 uM, LMP1 transcript by in-well qRT-PCR, screen replicate 2

| Compound | Average LMP1 Fold Increase [7] | Replicate 1-LMP1 Fold Increase [8] | Replicate 2-LMP1 Fold Increase [8] | also measured |
| --- | --- | --- | --- | --- |
| CC(C)OC(=O)OCOP(=O)(CO[C@H](C)Cn1cnc2c(N)ncnc21)OCOC(=O)OC(C)C [Tenofovir Disoproxil Fumarate] |  |  |  | fold induction at 2.5 µM [1]: 0.56; fold induction at 2.5 µM [2]: 0.21; fold induction at 2.5 µM [3]: 0.9 |
| Oc1ncnc2[nH]ncc12 [Allopurinol] |  |  |  | fold induction at 2.5 µM [4]: 0.11; fold induction at 2.5 µM [5]: 0.09; fold induction at 2.5 µM [6]: 0.13 |
| HA14-1 | 0.73 | 0.62 | 0.83 |  |
| N#Cc1c(O)c2c(-c3ccc(-c4ccccc4O)cc3)csc2[nH]c1=O [A-769662] | 0.40 | 0.41 | 0.39 |  |
| C[S+]([O-])c1ccc(-c2nc(-c3ccc(F)cc3)c(-c3ccncc3)[nH]2)cc1 (stereo not drawn) [SB203580] | 0.57 | 0.54 | 0.59 |  |
| Nc1cccc2c1CN(C1CCC(=O)NC1=O)C2=O (stereo not drawn) [Lenalidomide (CC-5013)] | 1.74 | 1.57 | 1.91 |  |
| N#C[C@@H]1CCCN1C(=O)CNC12CC3CC(CC(O)(C3)C1)C2 [Vildagliptin (LAF-237)] |  |  |  | Average LMP1 Fold Increase [9]: 0.72 fold; Replicate 1-LMP1 Fold Increase [10]: 0.58 fold; Replicate 2-LMP1 Fold Increase [11]: 0.87 fold |
| NC(=O)Nc1cc(-c2cccc(F)c2)sc1C(=O)N[C@H]1CCCNC1 [AZD7762] | 5.84 | 9.74 | 1.94 |  |
| COc1cc2c(cc1OC)CN(CCc1ccc(NC(=O)c3cc(OC)c(OC)cc3NC(=O)c3cnc4ccccc4c3)cc1)CC2 [Tariquidar] |  |  |  | fold induction at 2.5 µM [1]: 0.71; fold induction at 2.5 µM [2]: 0.56; fold induction at 2.5 µM [3]: 0.87 |
| Maraviroc | 1.08 | 0.44 | 1.72 |  |
| CC(/C=C/C(=O)NO)=C\[C@@H](C)C(=O)c1ccc(N(C)C)cc1 [Trichostatin A (TSA)] |  |  |  | Average LMP1 Fold Increase [9]: 88.29 fold; Replicate 1-LMP1 Fold Increase [10]: 44.18 fold; Replicate 2-LMP1 Fold Increase [11]: 132.40 fold |
| O=C(O)C(Cc1ccccc1[N+](=O)[O-])=NNc1nc(-c2ccc(Cl)c(Cl)c2)cs1 (mixture of isomers) [4EGI-1] | 0.64 | 0.41 | 0.86 |  |
| C=C1C(=O)O[C@H]2[C@H]1CC/C(C)=C/CC[C@@]1(C)O[C@@H]21 [(−)-Parthenolide] | 0.57 | 0.26 | 0.87 |  |
| Cc1ccc(C(=O)N(CCCN)[C@@H](c2nc3cc(Cl)ccc3c(=O)n2Cc2ccccc2)C(C)C)cc1 [Ispinesib (SB-715992)] | 1.57 | 2.72 | 0.43 |  |
| O=C(Nc1ccccc1)N1CCN(c2nc(-c3ccccc3)ns2)CC1 [JNJ-1661010] | 0.51 | 0.31 | 0.70 |  |
| COc1ccc2cc(-c3nc(-c4ccc([S+](C)[O-])cc4)[nH]c3-c3ccncc3)ccc2c1 (stereo not drawn) [Tie2 kinase inhibitor] |  |  |  | Average LMP1 Fold Increase [9]: 1.08 fold; Replicate 1-LMP1 Fold Increase [10]: 0.36 fold; Replicate 2-LMP1 Fold Increase [11]: 1.81 fold |
| COc1cc(-c2ncn(/C=C\C(=O)OC(C)C)n2)cc(C(F)(F)F)c1 [KPT-185] | 0.68 | 0.56 | 0.80 |  |
| C/C(=C\C(=O)Nc1ccccc1C(=O)O)c1ccc2ccccc2c1 [BIBR 1532] | 0.77 | 0.63 | 0.91 |  |

| Compound | Average LMP1 Fold Increase [7] | Replicate 1-LMP1 Fold Increase [8] | Replicate 2-LMP1 Fold Increase [8] | also measured |
| --- | --- | --- | --- | --- |
| Cc1cc(NC(=O)Nc2ccc(N(C)C)cc2)c2cc(F)cc(F)c2n1 [SB408124] | 0.67 | 0.81 | 0.53 |  |
| O=C(O)CCc1ccc(NCc2cccc(Oc3ccccc3)c2)cc1 [GW9508] | 0.48 | 0.52 | 0.45 |  |
| S3I-201 | 0.65 | 0.63 | 0.67 |  |
| Cc1ccc(NCCCc2ccccc2)c(N)c1 [JSH-23] | 0.77 | 0.86 | 0.69 |  |
| CC(C)C[C@H](NC(=O)[C@@H](NC(=O)c1cccc(-c2ccccc2)n1)[C@@H](C)O)B(O)O [CEP-18770 (Delanzomib)] | 96.92 | 98.21 | 95.63 |  |
| Cc1ccccc1C(=O)Nc1ccc(C(=O)N2CCCC(N(C)C)c3ccccc32)cc1 (stereo not drawn) [Mozavaptan] |  |  |  | fold induction at 2.5 µM [4]: 0.61; fold induction at 2.5 µM [5]: 0.32; fold induction at 2.5 µM [6]: 0.9 |
| CN(C)C(=O)[C@H](O)[C@H](Cc1ccccc1)NC(=O)c1cc2cc(Cl)ccc2[nH]1 [CP-91149] | 0.64 | 0.49 | 0.80 |  |
| CCc1c(C(=O)C(N)=O)c2c(OCC(=O)O)cccc2n1Cc1ccccc1 [Varespladib (LY315920)] |  |  |  | Average LMP1 Fold Increase [9]: 0.52 fold; Replicate 1-LMP1 Fold Increase [10]: 0.35 fold; Replicate 2-LMP1 Fold Increase [11]: 0.69 fold |
| C=C1C(=O)O[C@@H]2/C=C(\C)CC/C=C(\C)CC[C@@H]12 [Costunolide] |  |  |  | fold induction at 2.5 µM [4]: 1.21; fold induction at 2.5 µM [5]: 0.79; fold induction at 2.5 µM [6]: 1.62 |
| Cc1ccc([C@@H]2O[C@H](CO)[C@@H](O)[C@H](O)[C@H]2O)cc1Cc1ccc(-c2ccc(F)cc2)s1 [Canagliflozin] | 0.63 | 0.52 | 0.75 |  |
| O=C(NC[C@H]1CN(c2ccc(N3CCOCC3=O)cc2)C(=O)O1)c1ccc(Cl)s1 [Rivaroxaban] |  |  |  | fold induction at 2.5 µM [4]: 0.14; fold induction at 2.5 µM [5]: 0.08; fold induction at 2.5 µM [6]: 0.2 |
| CC(=O)O[C@H]1C[C@@H]2CC[C@@H]3[C@H](CC[C@@]4(C)[C@H]3C[C@H]([N+]3(C)CCCCC3)[C@@H]4OC(C)=O)[C@@]2(C)C[C@@H]1[N+]1(C)CCCCC1.[Br-].[Br-] [Pancuronium dibromide] | 0.28 | 0.25 | 0.31 |  |
| Oc1ccc(Nc2nc(-c3ccc(Cl)cc3)cs2)cc1 [SKI II] | 1.00 | 0.96 | 1.03 |  |
| O=C(O)CNC(=O)c1c(O)c2ccccc2n(Cc2ccccc2)c1=O [IOX2] | 0.39 | 0.40 | 0.38 |  |
| O=C(NCCN1CCOCC1)c1ccc(Cl)cc1 [Moclobemide (Ro 111163)] | 0.55 | 0.28 | 0.81 |  |
| CC(C)C[C@H](NC(=O)[C@H](Cc1ccccc1)NC(=O)c1cnccn1)B(O)O [Bortezomib (PS-341)] | 77.22 | 150.06 | 4.38 |  |
| Cc1cn([C@H]2C=C[C@@H](CO)O2)c(=O)[nH]c1=O [Stavudine (d4T)] | 0.73 | 0.83 | 0.63 |  |
